{
  "source": "ChEMBL document CHEMBL2429807",
  "about": "“Synthesis and cytotoxicity of novel 4-(4-(substituted)-1H-1,2,3-triazol-1-yl)-N-phenethylbenzenesulfonamides” (Med Chem Res, 2013)",
  "type_in_all_cases": "functional, cell-based",
  "key": {"[1]": {"assay": "Cytotoxicity against human HuCCa1 cells after 48 hrs by MTT assay", "details": "HuCC-A1, 48 h"}, "[2]": {"system": "HepG2", "assay": "Cytotoxicity against human HepG2 cells after 48 hrs by MTT assay", "details": "HepG2, 48 h"}, "[3]": {"system": "A549", "assay": "Cytotoxicity against human A549 cells after 48 hrs by MTT assay", "details": "A549, 48 h"}, "[4]": {"system": "MOLT-3", "assay": "Cytotoxicity against human MOLT3 cells after 48 hrs by XTT assay", "details": "MOLT-3, 48 h"}},
  "data": [
    {"smiles": "[N-]=[N+]=Nc1ccc(S(=O)(=O)NCCc2ccccc2)cc1", "values": [
      {"measurement": "IC50", "setting": "[1]", "result": "> 50", "unit": "µg/mL"},
      {"measurement": "IC50", "setting": "[2]", "result": 92.6, "unit": "µM"},
      {"measurement": "IC50", "setting": "[3]", "result": 139, "unit": "µM"},
      {"measurement": "IC50", "setting": "[4]", "result": 60.1, "unit": "µM"}
    ]},
    {"smiles": "COc1ccc(CCNS(=O)(=O)c2ccc(N=[N+]=[N-])cc2)cc1OC", "values": [
      {"measurement": "IC50", "setting": "[1]", "result": "> 50", "unit": "µg/mL"},
      {"measurement": "IC50", "setting": "[2]", "result": 122, "unit": "µM"},
      {"measurement": "IC50", "setting": "[3]", "result": "> 50", "unit": "µg/mL"},
      {"measurement": "IC50", "setting": "[4]", "result": 48.5, "unit": "µM"}
    ]},
    {"smiles": "O=S(=O)(NCCc1ccccc1)c1ccc(-n2cc(COc3ccc4ccccc4c3)nn2)cc1", "values": [
      {"measurement": "IC50", "setting": "[1]", "result": "> 50", "unit": "µg/mL"},
      {"measurement": "IC50", "setting": "[2]", "result": 28.2, "unit": "µM"},
      {"measurement": "IC50", "setting": "[3]", "result": "> 50", "unit": "µg/mL"},
      {"measurement": "IC50", "setting": "[4]", "result": 74.2, "unit": "µM"}
    ]},
    {"smiles": "COc1cc(C=O)ccc1OCc1cn(-c2ccc(S(=O)(=O)NCCc3ccccc3)cc2)nn1", "values": [
      {"measurement": "IC50", "setting": "[1]", "result": "> 50", "unit": "µg/mL"},
      {"measurement": "IC50", "setting": "[2]", "result": 57.5, "unit": "µM"},
      {"measurement": "IC50", "setting": "[3]", "result": 79.2, "unit": "µM"},
      {"measurement": "IC50", "setting": "[4]", "result": 9.22, "unit": "µM"}
    ]},
    {"smiles": "Cc1ccc(OCc2cn(-c3ccc(S(=O)(=O)NCCc4ccccc4)cc3)nn2)cc1", "values": [
      {"measurement": "IC50", "setting": "[1]", "result": "> 50", "unit": "µg/mL"},
      {"measurement": "IC50", "setting": "[2]", "result": 81.8, "unit": "µM"},
      {"measurement": "IC50", "setting": "[3]", "result": "> 50", "unit": "µg/mL"},
      {"measurement": "IC50", "setting": "[4]", "result": "> 50", "unit": "µg/mL"}
    ]},
    {"smiles": "COc1cccc2c1C(=O)c1c(O)c3c(c(O)c1C2=O)C[C@@](O)(C(=O)CO)C[C@@H]3O[C@H]1C[C@H](N)[C@H](O)[C@H](C)O1", "note": "[DOXORUBICIN]", "values": [
      {"measurement": "IC50", "setting": "[1]", "result": 0.83, "unit": "µM"},
      {"measurement": "IC50", "setting": "[2]", "result": 0.79, "unit": "µM"},
      {"measurement": "IC50", "setting": "[3]", "result": 0.44, "unit": "µM"}
    ]},
    {"smiles": "O=c1cc(OCc2cn(-c3ccc(S(=O)(=O)NCCc4ccccc4)cc3)nn2)c2ccccc2o1", "values": [
      {"measurement": "IC50", "setting": "[1]", "result": "> 50", "unit": "µg/mL"},
      {"measurement": "IC50", "setting": "[2]", "result": "> 50", "unit": "µg/mL"},
      {"measurement": "IC50", "setting": "[3]", "result": "> 50", "unit": "µg/mL"},
      {"measurement": "IC50", "setting": "[4]", "result": 10.7, "unit": "µM"}
    ]},
    {"smiles": "COc1cc([C@@H]2c3cc4c(cc3[C@@H](O[C@@H]3O[C@@H]5CO[C@@H](C)O[C@H]5[C@H](O)[C@H]3O)[C@H]3COC(=O)[C@H]23)OCO4)cc(OC)c1O", "note": "[ETOPOSIDE]", "values": [
      {"measurement": "IC50", "setting": "[2]", "result": 30.2, "unit": "µM"},
      {"measurement": "IC50", "setting": "[4]", "result": 0.051, "unit": "µM"}
    ]},
    {"smiles": "COc1ccc(CCNS(=O)(=O)c2ccc(-n3cc(-c4ccccc4)nn3)cc2)cc1OC", "values": [
      {"measurement": "IC50", "setting": "[1]", "result": "> 50", "unit": "µg/mL"},
      {"measurement": "IC50", "setting": "[2]", "result": 23.9, "unit": "µM"},
      {"measurement": "IC50", "setting": "[3]", "result": 18.2, "unit": "µM"},
      {"measurement": "IC50", "setting": "[4]", "result": 61, "unit": "µM"}
    ]},
    {"smiles": "O=S(=O)(NCCc1ccccc1)c1ccc(-n2cc(COc3ccccc3)nn2)cc1", "values": [
      {"measurement": "IC50", "setting": "[1]", "result": "> 50", "unit": "µg/mL"},
      {"measurement": "IC50", "setting": "[2]", "result": 57.5, "unit": "µM"},
      {"measurement": "IC50", "setting": "[3]", "result": "> 50", "unit": "µg/mL"},
      {"measurement": "IC50", "setting": "[4]", "result": "> 50", "unit": "µg/mL"}
    ]},
    {"smiles": "O=S(=O)(NCCc1ccccc1)c1ccc(-n2cc(-c3ccccc3)nn2)cc1", "values": [
      {"measurement": "IC50", "setting": "[1]", "result": 8.65, "unit": "µM"},
      {"measurement": "IC50", "setting": "[2]", "result": 9.07, "unit": "µM"},
      {"measurement": "IC50", "setting": "[3]", "result": 34.5, "unit": "µM"},
      {"measurement": "IC50", "setting": "[4]", "result": "> 50", "unit": "µg/mL"}
    ]},
    {"smiles": "O=S(=O)(NCCc1ccccc1)c1ccc(-n2cc(COc3cccc4ccccc34)nn2)cc1", "values": [
      {"measurement": "IC50", "setting": "[1]", "result": "> 50", "unit": "µg/mL"},
      {"measurement": "IC50", "setting": "[2]", "result": "> 50", "unit": "µg/mL"},
      {"measurement": "IC50", "setting": "[3]", "result": "> 50", "unit": "µg/mL"},
      {"measurement": "IC50", "setting": "[4]", "result": "> 50", "unit": "µg/mL"}
    ]},
    {"smiles": "COC(=O)c1ccccc1OCc1cn(-c2ccc(S(=O)(=O)NCCc3ccccc3)cc2)nn1", "values": [
      {"measurement": "IC50", "setting": "[1]", "result": "> 50", "unit": "µg/mL"},
      {"measurement": "IC50", "setting": "[2]", "result": 49.4, "unit": "µM"},
      {"measurement": "IC50", "setting": "[3]", "result": "> 50", "unit": "µg/mL"},
      {"measurement": "IC50", "setting": "[4]", "result": 8.81, "unit": "µM"}
    ]},
    {"smiles": "COc1ccc(C=O)cc1OCc1cn(-c2ccc(S(=O)(=O)NCCc3ccccc3)cc2)nn1", "values": [
      {"measurement": "IC50", "setting": "[1]", "result": "> 50", "unit": "µg/mL"},
      {"measurement": "IC50", "setting": "[2]", "result": 34.5, "unit": "µM"},
      {"measurement": "IC50", "setting": "[3]", "result": 39, "unit": "µM"},
      {"measurement": "IC50", "setting": "[4]", "result": 10.3, "unit": "µM"}
    ]},
    {"smiles": "Nc1ccc(S(=O)(=O)NCCc2ccccc2)cc1", "values": [
      {"measurement": "IC50", "setting": "[1]", "result": "> 50", "unit": "µg/mL"},
      {"measurement": "IC50", "setting": "[2]", "result": "> 50", "unit": "µg/mL"},
      {"measurement": "IC50", "setting": "[3]", "result": "> 50", "unit": "µg/mL"},
      {"measurement": "IC50", "setting": "[4]", "result": 167, "unit": "µM"}
    ]},
    {"smiles": "O=[N+]([O-])c1ccc(OCc2cn(-c3ccc(S(=O)(=O)NCCc4ccccc4)cc3)nn2)cc1", "values": [
      {"measurement": "IC50", "setting": "[1]", "result": "> 50", "unit": "µg/mL"},
      {"measurement": "IC50", "setting": "[2]", "result": "> 50", "unit": "µg/mL"},
      {"measurement": "IC50", "setting": "[3]", "result": "> 50", "unit": "µg/mL"},
      {"measurement": "IC50", "setting": "[4]", "result": 61.4, "unit": "µM"}
    ]},
    {"smiles": "COc1ccc(CCNS(=O)(=O)c2ccc(N)cc2)cc1OC", "values": [
      {"measurement": "IC50", "setting": "[1]", "result": "> 50", "unit": "µg/mL"},
      {"measurement": "IC50", "setting": "[2]", "result": "> 50", "unit": "µg/mL"},
      {"measurement": "IC50", "setting": "[3]", "result": "> 50", "unit": "µg/mL"},
      {"measurement": "IC50", "setting": "[4]", "result": 104, "unit": "µM"}
    ]},
    {"smiles": "O=Cc1ccc(OCc2cn(-c3ccc(S(=O)(=O)NCCc4ccccc4)cc3)nn2)cc1", "values": [
      {"measurement": "IC50", "setting": "[1]", "result": 87.9, "unit": "µM"},
      {"measurement": "IC50", "setting": "[2]", "result": 101, "unit": "µM"},
      {"measurement": "IC50", "setting": "[3]", "result": "> 50", "unit": "µg/mL"},
      {"measurement": "IC50", "setting": "[4]", "result": 32, "unit": "µM"}
    ]},
    {"smiles": "COc1ccc(CCNS(=O)(=O)c2ccc(-n3cc(COc4ccc(C=O)cc4)nn3)cc2)cc1OC", "values": [
      {"measurement": "IC50", "setting": "[1]", "result": "> 50", "unit": "µg/mL"},
      {"measurement": "IC50", "setting": "[2]", "result": "> 50", "unit": "µg/mL"},
      {"measurement": "IC50", "setting": "[3]", "result": 28, "unit": "µM"},
      {"measurement": "IC50", "setting": "[4]", "result": 17.4, "unit": "µM"}
    ]},
    {"smiles": "O=c1ccc2ccc(OCc3cn(-c4ccc(S(=O)(=O)NCCc5ccccc5)cc4)nn3)cc2o1", "values": [
      {"measurement": "IC50", "setting": "[1]", "result": 16.1, "unit": "µM"},
      {"measurement": "IC50", "setting": "[2]", "result": 12.4, "unit": "µM"},
      {"measurement": "IC50", "setting": "[3]", "result": 19.6, "unit": "µM"},
      {"measurement": "IC50", "setting": "[4]", "result": 89, "unit": "µM"}
    ]},
    {"smiles": "COc1ccc(CCNS(=O)(=O)c2ccc(-n3cc(COc4ccc([N+](=O)[O-])cc4)nn3)cc2)cc1OC", "values": [
      {"measurement": "IC50", "setting": "[1]", "result": "> 50", "unit": "µg/mL"},
      {"measurement": "IC50", "setting": "[2]", "result": "> 50", "unit": "µg/mL"},
      {"measurement": "IC50", "setting": "[3]", "result": "> 50", "unit": "µg/mL"},
      {"measurement": "IC50", "setting": "[4]", "result": 10.1, "unit": "µM"}
    ]},
    {"smiles": "Cc1ccccc1OCc1cn(-c2ccc(S(=O)(=O)NCCc3ccccc3)cc2)nn1", "values": [
      {"measurement": "IC50", "setting": "[1]", "result": "> 50", "unit": "µg/mL"},
      {"measurement": "IC50", "setting": "[2]", "result": 41.6, "unit": "µM"},
      {"measurement": "IC50", "setting": "[3]", "result": "> 50", "unit": "µg/mL"},
      {"measurement": "IC50", "setting": "[4]", "result": 34.2, "unit": "µM"}
    ]}
  ]
}
